Measurements: US7879370B2, “Composition of which chief ingredient is polysaccharides having an immunoregulatory function” (Merican Corporation, priority 2006, dated 2011)

Format: in vivo, BALB/c mice
Conditions: mouse antiallergy test, days 0 to 22; FIG. 9
Experimental: Body weight was determined with a scale on days 0, 7, 14, and 22. General symptoms were observed daily from day 0 to day 22. Blood plasma analysis was conducted by measuring the OVA-specific IgE level using plasma obtained by centrifuging blood drawn from the ophthalmic vein on days 0, 14, 18, and 22.

O=P1(N(CCCl)CCCl)NCCCO1 (stereo not shown) [cyclophosphamide]
change in body weights: reduction in the body weight
